Results published in patent US20250127857A1, “A COMPOSITION COMPRISING IL-36 AND/OR IL-18 FOR USE IN TREATING OCULAR DISORDERS” (THE PROVOST, FELLOWS, FOUNDATION SCHOLARS, & THE OTHER …, priority 2021, published 2025).

How the values were obtained:
HRMEC [1] = assay: Wound healing (scratch) assay in HRMEC, IL-18; format: cell-based, human; conditions: for mean difference in wound closure vs no treatment (xdiff): IL-18, VEGF, bFGF each 50 ng/ml, closure expressed as % closure
Protocol: FIG. 16 illustrates HRMEC migration in response to IL-18 and IL-1α stimulation, wherein confluent HRMEC monolayers were scratched with a pipette tip and treated with IL-18 (50 ng/ml) or IL-1α (10 ng/ml) along with bFGF (50 ng/ml) or VEGF (50 ng/ml) as positive controls, wherein images were taken immediately following scratch (0 hrs) and at 4, 8 and 24 hours following scratch, wherein images were analysed using ImageJ imaging software, wherein data are presented as mean±SEM of 6 separate experiments in triplicate, wherein data were analysed using 2way ANOVA with Dunnett's multiple comparison test. (*p<0.05, *p<0.01, ****p<0.0001);
Cells were seeded on to a 12-well plate and grown until they reached confluency. 24 hours prior to the scratch, culture medium was replaced with 0.5% Serum media without supplements for 24 hours to induce cell quiescence. Cell monolayers were scratched once down the centre of the well using a p200 pipette tip and washed once with warmed DPBS to remove debris then replaced with 0.5% serum supplemented media with experimental treatments. Images were acquired using an Olympus IX51 inverted microscope with Cell^A imaging software (Olympus). Images were taken at baseline immediately following scratch and at suitable timepoints for up to 24 (HRMECs) or 48 hours (BMVECs). The area within the scratch was quantified using ImageJ software, and each timepoint was normalised to its baseline and expressed as % closure.

HRMEC [2] = assay: MTS assay of HRMEC proliferation with VEGF and IL-18; format: cell-based, human
Protocol: FIG. 17 illustrates HRMEC proliferation in response to VEGF is enhanced with IL-18 pre-treatment, wherein HRMECs were treated with increasing concentrations of VEGF alone or with a 24 hour pre-treatment of IL-18 at 10, 100 or 1000 ng/ml, wherein increasing VEGF induced an increase in cell proliferation which was enhanced following IL-18 treatment;
Cell viability was assessed using the CellTiter 96 AQueous One Solution cell proliferation MTS assay (Promega) as per the manufacturer's instructions. Cell monolayers were treated for times indicated where treatment supplemented media was then removed and incubated with 20 μl of CellTiter 96 AQueous One Solution in 100 μl of complete growth medium in a humidified incubator at 37° C. with 5% CO2for 1-4 hours. The absorbance of each well was measured at 490 nm using a SynergyMX plate reader (Biotek, Gen5™).

occludin = assay: Occludin expression in HRMEC (qPCR and immunoblotting); format: cell-based, human
Protocol: FIG. 18 illustrates IL-18 drives expression of tight junction protein occludin and inhibits VEGF depletion of occluding, wherein HRMECS were treated with either VEGF, IL-18 or IL-1α for the timepoints indicated (top panel) and cells were prepared for RNA isolation and qPCR with expression of occluding measured, wherein HRMECs were treated with VEGF, IL-18 or IL-1 or combinations of these cytokines and cells were prepared for immunoblotting for expression of occludin and b-actin (lower panels);
Following transfer, membranes were blocked by incubating in 5% non-fat dried milk (Marvel) in TBS-T for 1 hour at room temperature whilst shaking. Membranes were incubated with primary antibody diluted in either 5% Marvel or BSA, depending on antibody specification, overnight at 4° C. with gentle agitation. Primary antibody was recovered and stored at −20. Membranes were washed three times in TBS-T for 5 minutes and membranes were incubated with secondary antibody, diluted in 5% Marvel, for 1 hour at room temperature. Secondary antibody was removed and discarded, and excess secondary was removed from the membranes by three 5-minute washes in TBS-T.
All RT-PCR assays were carried out using the SensiFAST SYBR Hi-ROX Kit (Bioline) with primers designed using Primer-BLAST (NCBI). For each target a master-mix comprising of 4 μl SYBR Green mix, 0.5 μl of Forward primer (4 μM) and 0.5 μl of Reverse primer (4 μM) along and 3 μl of RNAse free H2O was prepared and mixed thoroughly by vortexing. 8 μl of master-mix was added to each well of a 0.1 mL MicroAMP® Fast 96-well Reaction Plate (Applied Biosystems), along with 2 μl of cDNA and sealed using Optical adhesive film (Applied Biosystems) and spun down for 30 seconds in a centrifuge fitted with microplate rotor (Eppendorf) before running. Plate were run using a QuantStudio 3 real-time PCR System (Applied Biosystems) or the StepOnePlus Real-Time PCR System (Applied Biosystems), with run conditions set as: 50° C. for 2 mins, 95° C. for 10 minutes, 40 cycles of 95° C. for 15 seconds then 60° C. for 1 minute. To assess the quality of Primers a melt-curve stage was added: 95° C. for 1 second, 60° C. for 20 seconds, 95° C. for 1 second. Data were analysed using the QuantStudio™ Design & Analysis software (Applied Biosystems) and using the comparative Ct (ΔΔCt) method where test samples were normalised to endogenous control (β-Actin) followed by normalising the ΔCt of test samples to sample control (untreated sample), then calculating 2^−ΔΔCt to find the relative fold change of test samples over sample control.

bone marrow derived MSCs = assay: Bone marrow derived mesenchymal stem cell activation (confocal microscopy); format: cell-based, mouse; conditions: IL-18 250 ng/ml, 8 h
Protocol: FIG. 21 illustrates IL-18 activates bone marrow derived mesenchymal stem cells, wherein bone marrow derived MSC's were treated with IL-18 at 250 ng/ml for 8 h and images using confocal microscopy, wherein cells were stained with phalloidin for F-actin, vimentin, smooth muscle actin (SMA) and collagen 1;
The femurs from mice were isolated and, using a 20 ml syringe, the bones were flushed with DMEM into a cell culture dish. The flushings were centrifuged for 5 minutes at 1000 rpm. The supernatant was poured off and resuspended in 1 ml of 15% FBS and aMEM media, and filtered through a 70 um nylon mesh into a 50 ml captube. A further 5 ml of 15% FBS and aMEM were added through the mesh tube into the same 50 ml cap tube, and plated in a TC coated dish and cultured in an incubator for 5 days. On Day 5, the dish was washed with PBS 3 times (using PBS with no magnesium or calcium),trypsinized and the trypsin pipetted onto the plate to break up the colonies. 10mis of 10% FBS and DMEM were added and the cells collected in a 50 ml cap tube and this process was repeated once more, centrifuged for 5 mins at 1000 rpm, supernatant poured off, cells resuspended in 1 ml of DMEM and 20% FBS, and plated in a T75 and fed every second day until cells were confluent. When cells were confluent, they were split 1 in 3.

IL-18: recombinant human IL-18 (SB-485232; GSK)
mean difference in wound closure vs no treatment (xdiff) (HRMEC [1]; 8 hours post scratch): −0.99 | mean difference in wound closure vs no treatment (xdiff) (HRMEC [1]; 24 hours post scratch): −12.58 | rate of wound closure (HRMEC [1]; IL-18 50 ng/ml, vs no treatment control): significantly increased the rate of wound closure | HRMEC proliferation, IL-18 alone (HRMEC [2]): able to enhance HRMEC proliferation | VEGF induced proliferation after IL-18 pre-treatment (HRMEC [2]; 24 hour pre-treatment with IL-18 at 10, 100 or 1000 ng/ml): VEGF induced proliferation was increased | rescue of VEGF mediated occludin inhibition (occludin; combination with VEGF, immunoblotting): can rescue VEGF inhibition of occluding | expression of tight junction protein occludin (occludin; single cytokine): increased expression of this tight junction protein | appearance of vimentin and SMA in MSCs (bone marrow derived MSCs): strong effect on the appearance of vimentin and SMA | collagen in MSCs (bone marrow derived MSCs): increased collagen in MSCs
